Assay results published in patent US5006650A, “Novel N-1 substituted beta-lactams as antibiotics” (The Upjohn Company, priority 1989, dated 1991).
In brackets after ≈: the same amount, converted by molar mass.

How the values were obtained:
Assay in all cases: MIC, agar dilution in Mueller Hinton Agar
Assay type in all cases: cell-based
[1] = test system: Streptococcus Faecalis 694; conditions: Enterococcus faecalis, culture 694, MHA, 35° C., 20 hours, read-out: Minimum Inhibitory Concentration
Procedure: (§1) The compounds of this invention and their respective pharmacologically acceptable salts have antibiotic activity against a variety of gram-negative bacteria including Escherichia coli, Klebsiella pneumoniae, and Pseudomonas aeruginosa. The compounds are useful for treating bacterial infections in animals, including and most preferably humans. Compounds of the invention are tested for in vitro antimicrobial activity using standard testing procedures such as the determination of minimum inhibitory concentration (MIC) by methods described in "Methods for Dilution Antimicrobial Susceptibility Tests for Bacteria That Grow Aerobically" (M7-A) Published December 1985 by the National Committee for Clinical Laboratory Standards, 771 East Lancaster Avenue, Villanova, Pa. 19084. Briefly, MIC values are determined in unsupplemented Mueller Hinton Agar (MHA). The compounds tested are diluted serially into molten MHA at 47 C. The agar is poured into petri dishes and allowed to harden. The various bacteria used for testing are grown overnight on MHA at 35 C. and transferred to Tryptiease Soy Broth (TSB) until a turbidity of 0.5 McFarland standard is obtained. The bacteria are diluted one to twenty in TSB and inoculated on the plates (1 μl using a Steers replicator).

[2] = test system: Streptococcus Pyogenes 152; conditions: culture 152, MHA, 35° C., 20 hours, read-out: Minimum Inhibitory Concentration
Procedure: as §1

Klebsiella Oxytoca 9383 = conditions: OXYTOCA9383, culture 9383, MHA, 35° C., 20 hours, read-out: Minimum Inhibitory Concentration
Procedure: as §1

[3] = test system: Enterobacter Cloacae 9382; conditions: CLOACAE9382, culture 9382, MHA, 35° C., 20 hours, read-out: Minimum Inhibitory Concentration
Procedure: as §1

[4] = test system: Pseudomonas Aeruginosa 9191; conditions: culture 9191, MHA, 35° C., 20 hours, read-out: Minimum Inhibitory Concentration
Procedure: as §1

Klebsiella Oxytoca 9384 = conditions: OXYTOCA9384, culture 9384, MHA, 35° C., 20 hours, read-out: Minimum Inhibitory Concentration
Procedure: as §1

Serratia Marcescens 6888 = conditions: culture 6888, MHA, 35° C., 20 hours, read-out: Minimum Inhibitory Concentration
Procedure: as §1

Escherichia Coli 9380 = conditions: COLI9380, culture 9380, MHA, 35° C., 20 hours, read-out: Minimum Inhibitory Concentration
Procedure: as §1

Escherichia Coli 9451 = conditions: COLI9451, culture 9451, MHA, 35° C., 20 hours, read-out: Minimum Inhibitory Concentration
Procedure: as §1

[5] = test system: Pseudomonas Aeruginosa 231; conditions: culture 231, MHA, 35° C., 20 hours, read-out: Minimum Inhibitory Concentration
Procedure: as §1

Klebsiella Pneumoniae 58 = conditions: culture 58, MHA, 35° C., 20 hours, read-out: Minimum Inhibitory Concentration
Procedure: as §1

[6] = test system: Enterobacter Cloacae 9381; conditions: CLOACAE9381, culture 9381, MHA, 35° C., 20 hours, read-out: Minimum Inhibitory Concentration
Procedure: as §1

[7] = test system: Staphylococcus Aureus 3665; conditions: AUREUS3665, culture 3665, MHA, 35° C., 20 hours, read-out: Minimum Inhibitory Concentration
Procedure: as §1

[8] = test system: Streptococcus Pneumoniae 41; conditions: culture 41, MHA, 35° C., 20 hours, read-out: Minimum Inhibitory Concentration
Procedure: as §1

[9] = test system: Staphylococcus Aursus 6685; conditions: AURSUS6685, culture 6685, MHA, 35° C., 20 hours, read-out: Minimum Inhibitory Concentration
Procedure: as §1

[10] = test system: Citrobacter Freundli 3507; conditions: culture 3507, MHA, 35° C., 20 hours, read-out: Minimum Inhibitory Concentration
Procedure: as §1

Escherichia Coli 9379 = conditions: COLI9379, culture 9379, MHA, 35° C., 20 hours, read-out: Minimum Inhibitory Concentration
Procedure: as §1

[11] = test system: Staphylococcus Aureus 9218; conditions: AUREUS9218, culture 9218, MHA, 35° C., 20 hours, read-out: Minimum Inhibitory Concentration
Procedure: as §1

Proteus Vulgaris 9679 = conditions: culture 9679, MHA, 35° C., 20 hours, read-out: Minimum Inhibitory Concentration
Procedure: as §1

Row | MIC [1] [µg/mL] | MIC [2] [µg/mL] | MIC (Klebsiella Oxytoca 9383) [µg/mL] | MIC [3] [µg/mL] | MIC [4] [µg/mL] | MIC (Klebsiella Oxytoca 9384) [µg/mL] | MIC (Serratia Marcescens 6888) [µg/mL] | MIC (Escherichia Coli 9380) [µg/mL] | MIC (Escherichia Coli 9451) [µg/mL] | MIC [5] [µg/mL] | MIC (Klebsiella Pneumoniae 58) [µg/mL] | MIC [6] [µg/mL] | MIC [7] [µg/mL] | MIC [8] [µg/mL] | MIC [9] [µg/mL] | MIC [10] [µg/mL] | MIC (Escherichia Coli 9379) [µg/mL] | MIC [11] [µg/mL] | MIC (Proteus Vulgaris 9679) [µg/mL] | Structure (SMILES)
1 | > 64 | 32 (≈ 48.8 µM) | 0.25 (≈ 0.381 µM) | 0.25 (≈ 0.381 µM) | 2 (≈ 3.05 µM) | 0.03 (≈ 0.0458 µM) | 0.03 (≈ 0.0458 µM) | > 0.008 | 0.015 (≈ 0.0229 µM) | 2 (≈ 3.05 µM) | 0.25 (≈ 0.381 µM) | 16 (≈ 24.4 µM) | > 64 | 64 (≈ 97.6 µM) | > 64 | 0.06 (≈ 0.0915 µM) | > 0.008 | > 64 | 0.125 (≈ 0.191 µM) | Nc1nc(C(=NOCC(=O)O)C(=O)N[C@H]2CN(C(=O)NS(=O)(=O)n3ncn(NC(=O)c4cc(=O)c(O)c[nH]4)c3=O)C2=O)cs1 [Compound U-78284]
2 | > 128 | 16 (≈ 23.4 µM) | 0.125 (≈ 0.183 µM) | 0.5 (≈ 0.731 µM) | 0.25 (≈ 0.366 µM) | 0.06 (≈ 0.0878 µM) | 0.03 (≈ 0.0439 µM) | > 0.015 | > 0.015 | 0.125 (≈ 0.183 µM) | 0.25 (≈ 0.366 µM) | 16 (≈ 23.4 µM) | > 128 | 128 (≈ 187 µM) | > 128 | 0.06 (≈ 0.0878 µM) | > 0.015 | > 128 | 0.03 (≈ 0.0439 µM) | CC(C)(ON=C(C(=O)NC1CN(C(=O)NS(=O)(=O)n2ncn(NC(=O)c3cc(=O)c(O)c[nH]3)c2=O)C1=O)c1csc(N)n1)C(=O)O (centres unmarked) [Compound U-77938]
